Legend:
Type in all cases: functional, cell-based
[1] = Anticoagulant activity assessed as inhibition of arachidonic acid induced rabbit platelet aggregation; details: Oryctolagus cuniculus
[2] = Anticoagulant activity assessed as inhibition of thrombin induced rabbit platelet aggregation; details: Oryctolagus cuniculus
[3] = Antiinflammatory activity in neutrophils assessed as inhibition of oxygen radical generation; details: Homo sapiens, Neutrophil
[4] = Antiinflammatory activity in neutrophil assessed as inhibition of fMLP induced elastase release; details: Homo sapiens

Compound	IC50 [1] [µM]	IC50 [2] [µM]	IC50 [3] [µM]	IC50 [4] [µM]
CCOC(=O)c1ccc(Cl)cc1NC(=O)c1ccccc1Cl	0.8	> 100	> 40	> 40
CCCOC(=O)c1ccc(Cl)cc1NC(=O)c1ccccc1F	1.6	> 100	> 40	> 40
COC(=O)c1cccc(Cl)c1NC(=O)c1ccccc1Br	> 100	> 100	> 40	> 40
O=S(=O)(F)Cc1ccccc1 [PHENYLMETHYLSULFONYLFLUORIDE]				131
COC(=O)c1ccccc1NC(=O)c1ccc(C)cc1	> 100	> 100	> 40	> 40
CCOC(=O)c1ccc(Cl)cc1NC(=O)c1ccccc1Br	3.6	> 100	> 40	> 40
CCOC(=O)c1ccc(Cl)cc1NC(=O)c1ccccc1C	4.9	> 100	> 40	2.83
CCCOC(=O)c1ccc(Cl)cc1NC(=O)c1ccccc1C	2.2	> 100	> 40	> 40
COC(=O)c1ccc(Cl)cc1NC(=O)c1ccccc1F	2.2	> 100	> 40	> 40
COC(=O)c1ccccc1NC(=O)c1cccc(OC)c1	> 100	> 100	> 40	> 40
COC(=O)c1ccccc1NC(=O)c1cccc(C)c1	> 100	> 100	> 40	18.3
COC(=O)c1ccccc1NC(=O)c1ccc(Br)cc1	> 100	> 100	> 40	> 40
COC(=O)c1ccccc1NC(=O)c1cccc(Br)c1	> 100	> 100	> 40	15.4
COC(=O)c1cccc(Cl)c1NC(=O)c1ccccc1C	> 100	> 100	> 40	> 40
CCOC(=O)c1ccccc1NC(=O)c1ccccc1F		> 100	0.17	14.3
CCOC(=O)c1ccc(Cl)cc1NC(=O)c1ccccc1OC	4.9	> 100	> 40	4.31
COC(=O)c1ccccc1NC(=O)c1ccc(F)cc1	> 100	> 100	> 40	> 40
COC(=O)c1c(Cl)cccc1NC(=O)c1ccccc1F	78.2	> 100	> 40	> 40
CC(=O)c1ccccc1NC(=O)c1ccccc1F		> 100	24.1	> 40
COC(=O)c1c(Cl)cccc1NC(=O)c1ccccc1C	> 100	> 100	> 40	> 40
COC(=O)c1ccc(Cl)cc1NC(=O)c1ccc(C)cc1	> 100	> 100	> 40	> 40
COC(=O)c1cccc(Cl)c1NC(=O)c1ccccc1OC	66.6	> 100	> 40	> 40
COC(=O)c1c(Cl)cccc1NC(=O)c1ccccc1Cl	80.8	> 100	> 40	> 40
COC(=O)c1ccc(Cl)cc1NC(=O)c1ccccc1Br	2.6	> 100	> 40	> 40
COC(=O)c1ccccc1NC(=O)c1ccccc1F	10.8	> 100	0.65	> 40
CCCOC(=O)c1ccc(Cl)cc1NC(=O)c1ccccc1Cl	0.7	> 100	> 40	> 40

Compound	IC50 [1] [µM]	IC50 [2] [µM]	IC50 [3] [µM]	IC50 [4] [µM]
COC(=O)c1c(Cl)cccc1NC(=O)c1ccccc1OC	62.3	> 100	> 40	> 40
CCCOC(=O)c1ccc(Cl)cc1NC(=O)c1ccccc1Br	3.5	> 100	> 40	> 40
COC(=O)c1ccc(Cl)cc1NC(=O)c1ccccc1C	4.3	> 100	> 40	> 40
COC(=O)c1ccccc1NC(=O)c1cccc(F)c1	> 100	> 100	10.6	> 40
CC(=O)Oc1ccccc1C(=O)O [ASPIRIN]	152	> 100	> 40	> 40
COC(=O)c1ccc(Cl)cc1NC(=O)c1ccc(F)cc1	> 100	> 100	> 40	> 40
COC(=O)c1ccc(Cl)cc1NC(=O)c1ccc(Br)cc1	> 100	> 100	> 40	> 40
COC(=O)c1ccccc1NC(=O)c1ccccc1OC	8	> 100	7.41	> 40
COC(=O)c1ccccc1NC(=O)c1ccccc1Br	22.9	> 100	12	> 40
COC(=O)c1c(Cl)cccc1NC(=O)c1ccccc1Br	76.4	> 100	> 40	> 40
COc1ccc2c(c1)c(CC(=O)O)c(C)n2C(=O)c1ccc(Cl)cc1 [INDOMETHACIN]	0.14	> 100	> 40	> 40
COC(=O)c1ccccc1NC(=O)c1cccc(Cl)c1	> 100	> 100	> 40	> 40
COC(=O)c1ccccc1NC(=O)c1ccc(OC)cc1	> 100	> 100	> 40	> 40
CCCOC(=O)c1ccc(Cl)cc1NC(=O)c1ccccc1OC	23.4	> 100	> 40	> 40
COC(=O)c1ccc(Cl)cc1NC(=O)c1ccc(OC)cc1	> 100	> 100	> 40	> 40
c1ccc2c(c1)[I+]c1ccccc1-2 [DIPHENYLENEIODONIUM]			0.86	
COC(=O)c1ccccc1NC(=O)c1ccccc1Cl	11	> 100	11	> 40
COC(=O)c1ccccc1NC(=O)c1ccccc1C	16.6	> 100	9.26	> 40
COC(=O)c1cccc(Cl)c1NC(=O)c1ccccc1F	> 100	> 100	> 40	> 40
COC(=O)c1ccc(Cl)cc1NC(=O)c1ccccc1Cl	1.1	> 100	> 40	> 40
CCOC(=O)c1ccc(Cl)cc1NC(=O)c1ccccc1F	3.8	> 100	> 40	> 40
COC(=O)c1ccc(Cl)cc1NC(=O)c1ccc(Cl)cc1	> 100	> 100	> 40	> 40
COC(=O)c1ccc(Cl)cc1NC(=O)c1ccccc1OC	2.2	> 100	> 40	> 40
COC(=O)c1cccc(Cl)c1NC(=O)c1ccccc1Cl	> 100	> 100	> 40	> 40
COC(=O)c1ccccc1NC(=O)c1ccc(Cl)cc1	> 100	> 100	> 40	> 40

— ChEMBL document CHEMBL1139089, “The evaluation and structure-activity relationships of 2-benzoylaminobenzoic esters and their analogues as anti-inflammatory and anti-platelet aggregation agents” (Bioorg Med Chem Lett, 2007)
